Data as given in PubChem BioAssay AID1963978 (Molecular Pharmacology Branch, DTP, NCI, 2024).

Test system: 616215-338-R-J1-PDC spheroids with HUVEC/MSC, viability
Assay: Anticancer human tumor 616215-338-R-J1-PDC patient-derived colon adenocarcinoma cell line growth inhibition [PI3K]
Settings: for IC50: curve of first compound; for viability, T/C: stronger effect = lower value
Outline: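 Complex 3D spheroids (cancer cells + endothelial HUVEC + mesenchymal stem cells); drug pairs of targeted agent x inavolisib/alpelisib/duvelisib/copanlisib; half-log series from ~Cmax, max 10 microM if Cmax unknown; endpoint viability.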
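Further: spheroids exposed to agents for seven days before the viability read.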

Cn1cnc2c(F)c(Nc3ccc(Br)cc3Cl)c(C(=O)NOCCO)cc21 + CC(Nc1ncnc2nc[nH]c12)c1cc2cccc(Cl)c2c(=O)n1-c1ccccc1
IC50 (second compound 0.0316 µM): 1520 nM
IC50 (second compound 0.1 µM): 1560 nM
IC50 (second compound 0.316 µM): 1910 nM
IC50 (second compound 1 µM): 1730 nM
IC50 (second compound 3.16 µM): 1270 nM
IC50 (second compound 10 µM): 507 nM
viability, T/C (second compound 0.0316 µM, first compound 0.00949 µM): 94.3%
viability, T/C (second compound 0.0316 µM, first compound 0.03 µM): 100%
viability, T/C (second compound 0.0316 µM, first compound 0.0949 µM): 89.7%
viability, T/C (second compound 0.0316 µM, first compound 0.3 µM): 75.8%
viability, T/C (second compound 0.0316 µM, first compound 0.949 µM): 59.9%
viability, T/C (second compound 0.0316 µM, first compound 3 µM): 37.5%
viability, T/C (second compound 0.1 µM, first compound 0.00949 µM): 108%
viability, T/C (second compound 0.1 µM, first compound 0.03 µM): 96.5%
viability, T/C (second compound 0.1 µM, first compound 0.0949 µM): 89%
viability, T/C (second compound 0.1 µM, first compound 0.3 µM): 77.6%
viability, T/C (second compound 0.1 µM, first compound 0.949 µM): 51.8%
viability, T/C (second compound 0.1 µM, first compound 3 µM): 43.8%
viability, T/C (second compound 0.316 µM, first compound 0.00949 µM): 95.2%
viability, T/C (second compound 0.316 µM, first compound 0.03 µM): 90.5%
viability, T/C (second compound 0.316 µM, first compound 0.0949 µM): 86.5%
viability, T/C (second compound 0.316 µM, first compound 0.3 µM): 70.2%
viability, T/C (second compound 0.316 µM, first compound 0.949 µM): 59.6%
viability, T/C (second compound 0.316 µM, first compound 3 µM): 44.4%
viability, T/C (second compound 1 µM, first compound 0.00949 µM): 98.6%
viability, T/C (second compound 1 µM, first compound 0.03 µM): 90.8%
viability, T/C (second compound 1 µM, first compound 0.0949 µM): 87.6%
viability, T/C (second compound 1 µM, first compound 0.3 µM): 84.6%
viability, T/C (second compound 1 µM, first compound 0.949 µM): 63%
viability, T/C (second compound 1 µM, first compound 3 µM): 36.9%
viability, T/C (second compound 3.16 µM, first compound 0.00949 µM): 102%
viability, T/C (second compound 3.16 µM, first compound 0.03 µM): 96.3%
viability, T/C (second compound 3.16 µM, first compound 0.0949 µM): 83.3%
viability, T/C (second compound 3.16 µM, first compound 0.3 µM): 76.5%
viability, T/C (second compound 3.16 µM, first compound 0.949 µM): 55%
viability, T/C (second compound 3.16 µM, first compound 3 µM): 32.5%
viability, T/C (second compound 10 µM, first compound 0.00949 µM): 117%
viability, T/C (second compound 10 µM, first compound 0.03 µM): 99.1%
viability, T/C (second compound 10 µM, first compound 0.0949 µM): 93.3%
viability, T/C (second compound 10 µM, first compound 0.3 µM): 52.5%
viability, T/C (second compound 10 µM, first compound 0.949 µM): 41%
viability, T/C (second compound 10 µM, first compound 3 µM): 6.44%
